This is an account of results in patent US20050221456A1, “Use of indanoyl amide to stimulate secondary metabolism in Taxus sp” (Phyton Biotech, Inc., priority 2004, published 2005).

In assay [1] the test system is Taxus chinensis cells. The assay is described as follows: Effect of 6-BII on taxane production in suspension culture (14 days). Type of assay: cell-based. Particulars: for Baccatin III / Paclitaxel / Total taxanes: 14 days in production medium with NAA, MDCA, GLN, silver thiosulfate. How it is done:
(§1) This experiment was carried out according to the following parameters. Taxus chinensis cells were cultivated as callus and then as suspended cells on growth medium (Medium A, Table B) according to the methods described above. After seven days of cultivation in this medium, the suspended cells were substantially separated from this medium and placed at approximately 20% (w/v) fresh cells into a basal production medium (Medium B, Table B) with an initial pH of 5.8. In addition to the ingredients listed in Table B, the medium comprised 20 micromol/l NAA, 20 micromol/l MDCA, 5 mmol/l GLN, and 50 micromol/l silver as a thiosulfate complex. The gas phase was controlled to oxygen at 90-97% of the levels in air and 2.5-6% CO2; the temperature was held at 25±2 degrees Celsius. The cells were cultivated in the dark and were agitated at 150-200 rpm for the duration of the experiment. After 14 days of cultivation in production medium, the culture was harvested for taxanes.

Assay [2] has as its system Taxus chinensis cells. Kind of assay: Effect of 1-OII on accumulation of taxanes by Taxus cell suspension culture (14 days). Particulars: for Baccatin III / Paclitaxel / Total taxanes: 14 days in production medium with NAA, MDCA, GLN, silver thiosulfate. Type of assay: cell-based. How it is done:
as §1, with “ca.” for “approximately”, “also contained” for “comprised”, “value” for “levels”

The subject of assay [3] is Eschscholzia californica Cell Cultures. Particulars: compared with the octadecanoids or coronatine; quoted from Haider et al.; cited from earlier work.
In assay [4] the test system is Taxus chinensis cells. Kind of assay: Fed batch addition of 6-EII, taxane production in Taxus chinensis suspension culture (12 days). Particulars: cumulative 12-day fed batch dose 30 micromol/l. Type of assay: cell-based. An excerpt: The medium also contains an indanoyl amide as described in the present application, optionally in combination with one or more jasmonic acid-related substance, and these materials may be added at the beginning of the culture, after the exponential growth phase, or intermittantly throughout the culture period. The other ingredients of the medium may be added all at one time or at different times during the cultivation and may be fed continuously or intermittently. The ingredients may be added either before or after the inclusion of plant cells in the culture broth. Further, nutrients or other ingredients may be additionally added during cultivation, if deemed useful. Optionally, the medium may be changed after a suitable period of cultivation whereby the cells are freshly exposed to a medium containing similar ingredients as described above. Such changes could involve changes to the amounts of sugars such as glucose, fructose, sucrose, maltose, etc., nitrogen sources such as nitrate, ammonium, or amino acids or casamino acids, etc. After a period of cultivation, the culture is harvested and the levels of taxanes are quantified using HPLC and specific taxanes are identified using LC/MS/MS. Taxanes can be recovered from these cultures by appropriate extraction and purification procedures. For Experiments 2-8, Taxus cells were cultivated as callus cultures on solid medium and then further cultivated as suspensions of cell aggregates in liquid medium. Although taxanes can be produced by cultivation on solid medium, the use of liquid medium is preferred. The temperature of cultivation was controlled between 20 and 30 degrees Celsius. This experiment was carried out according to the following parameters. […] Taxus chinensis cells were cultivated as callus and then as suspended cells in growth medium (Medium A shown in Table B) containing 1% maltose and B5 salts according to the methods described above. After seven days of cultivation in this medium, the suspended cells were substantially separated from this medium and placed at about 20% (w/v) fresh cells into a production medium consisting of about 20% (v/v) spent growth medium and 80% (v/v) basal production medium (Medium B shown in Table B, but 1.25-fold concentrated) with an initial pH of 5.8 and containing 20 micromol/l MDCA and 50 micromol/l SLTS (Silver Thiosulfate). […] The gas phase was controlled to 25% oxygen and 4.5% CO2 (balance nitrogen) and the temperature was held at 25±2 degrees Celsius. The cells were cultivated in the dark and were agitated at 100-150 rpm for the duration of the experiment. After 12 days of cultivation in production medium, the culture was harvested for taxanes.

The next assay relates to tendril coiling. Particulars: quoted from Haider et al.; cited from earlier work.
In assay [5] the test system is paclitaxel and taxanes biosynthesis. Particulars: teaching of EP 727492 (Yukimune et al.); cited from earlier work.
The test system of assay [6] is touch-sensitive tendrils of Bryonia diocia. Particulars: quoted from Schuler et al. WO 02/55480; cited from earlier work.
The mark [7] stands for this setting: harvest after 12 days in production medium.

As for 6-Bromoindanoyl isoleucine [6-BII], the “induction of taxanes production” value with Taxus chinensis cells [1] (T. chinensis cell cultures) is “effective inducer of taxanes production”. In addition, the “Baccatin III” value amounted to 92 mg/L in the assay on Taxus chinensis cells [1] (dose 5 micromol/l); 114 mg/L in the assay on Taxus chinensis cells [1] (dose 20 micromol/l); 174 mg/L in the assay with Taxus chinensis cells [1] (dose 50 micromol/l); 313 mg/L in the assay with Taxus chinensis cells [1] (dose 100 micromol/l); 307 mg/L in the assay with Taxus chinensis cells [1] (dose 200 micromol/l); 1 mg/L with Taxus chinensis cells [1] (dose 500 micromol/l). For the same compound, the Paclitaxel in the assay on Taxus chinensis cells [1] (dose 5 micromol/l) was 235 mg/L; with Taxus chinensis cells [1] (dose 20 micromol/l), 230 mg/L; in the assay with Taxus chinensis cells [1] (dose 50 micromol/l), 254 mg/L; in the assay with Taxus chinensis cells [1] (dose 100 micromol/l), 360 mg/L; with Taxus chinensis cells [1] (dose 200 micromol/l), 375 mg/L; in the assay on Taxus chinensis cells [1] (dose 500 micromol/l), 0 mg/L. Also, the Total taxanes in the assay with Taxus chinensis cells [1] (dose 5 micromol/l) worked out at 423 mg/L; with Taxus chinensis cells [1] (dose 20 micromol/l) it was 441 mg/L; with Taxus chinensis cells [1] (dose 50 micromol/l), 580 mg/L; with Taxus chinensis cells [1] (dose 100 micromol/l), 962 mg/L; with Taxus chinensis cells [1] (dose 200 micromol/l), 1060 mg/L; in the assay with Taxus chinensis cells [1] (dose 500 micromol/l), 105 mg/L.
Take `CC[C@H](C)[C@H](NC(=O)c1cccc2c1CCC2=O)C(=O)OC` [1-OII, 1-oxo-indane-carboxy-(L)-isoleucine-methyl ester amide]: the “induction of taxanes production” value in the assay on Taxus chinensis cells [2] (Taxus suspension culture) is “effective inducer of taxanes production”. Further, the “Baccatin III” value in the assay with Taxus chinensis cells [2] (dose 5 micromol/l) was determined as 50 mg/L; in the assay with Taxus chinensis cells [2] (dose 20 micromol/l), 72 mg/L; in the assay on Taxus chinensis cells [2] (dose 50 micromol/l), 112 mg/L; in the assay with Taxus chinensis cells [2] (dose 100 micromol/l), 242 mg/L; with Taxus chinensis cells [2] (dose 200 micromol/l), 375 mg/L; in the assay on Taxus chinensis cells [2] (dose 500 micromol/l), 45 mg/L. In addition, the Paclitaxel with Taxus chinensis cells [2] (dose 5 micromol/l) was 192 mg/L; in the assay with Taxus chinensis cells [2] (dose 20 micromol/l), 248 mg/L; in the assay with Taxus chinensis cells [2] (dose 50 micromol/l), 349 mg/L; with Taxus chinensis cells [2] (dose 100 micromol/l), 409 mg/L; in the assay on Taxus chinensis cells [2] (dose 200 micromol/l), 407 mg/L; in the assay with Taxus chinensis cells [2] (dose 500 micromol/l) it was 67 mg/L. Besides, the Total taxanes in the assay with Taxus chinensis cells [2] (dose 5 micromol/l) stood at 300 mg/L; in the assay on Taxus chinensis cells [2] (dose 20 micromol/l), 400 mg/L; in the assay with Taxus chinensis cells [2] (dose 50 micromol/l) it was 580 mg/L; with Taxus chinensis cells [2] (dose 100 micromol/l), 822 mg/L; with Taxus chinensis cells [2] (dose 200 micromol/l), 1055 mg/L; in the assay with Taxus chinensis cells [2] (dose 500 micromol/l), 368 mg/L.
Consider `CC/C=C\CC1C(=O)CCC1CC(=O)OC` (stereo not drawn) [MJS, methyl jasmonate, reference compound], for which the “activation of benzo[c]phenanthridine alkaloid accumulation” value in assay [3] was “much more effective”. In the assay with Taxus chinensis cells [2] (dose 45 micromol/l), the “Baccatin III” value stood at 226 mg/L, the Paclitaxel came to 432 mg/L and the Total taxanes came out at 854 mg/L. For the same compound, in the assay with Taxus chinensis cells [1] (dose 45 micromol/l), the “Baccatin III” value came to 154 mg/L, the Paclitaxel amounted to 574 mg/L and the Total taxanes stood at 912 mg/L. In the assay on Taxus chinensis cells [4] (setting [7]), the “Baccatin III” value came out at 273 mg/L and the Paclitaxel is on record as 490 mg/L. The Total in the assay with Taxus chinensis cells [4] (total taxanes, harvest after 12 days) is listed as 1410 mg/L.
Take `CCC1CC1(NC(=O)C1=C[C@H](CC)C[C@@H]2C(=O)CC[C@H]12)C(=O)O` (stereo partly drawn) [Coronatine]: in the assay with tendril coiling, the “induction of tendril coiling” value was “strong inducers of tendril coiling”. Besides, the “induction of paclitaxel and taxanes biosynthesis” value in assay [5] is “shown to induce paclitaxel and taxanes biosynthesis”.
Turning to `CCc1cc2c(c(C(=O)N[C@H](C(=O)OC)[C@@H](C)CC)c1)CCC2=O` [6-ethyl-1-oxo-indanoyl isoleucine methyl ester], in assay [6], the “elicitation of the coiling reaction of tendrils” value is listed as “potent elicitor”.
